Consider 23 molecules from patent US20210047304A1, “Bromodomain Inhibitors” (AbbVie Inc., priority 2016, published 2021).

Some results are limits rather than exact numbers.

The test has as its target BRD4 (BDI_K57-E168) (Homo sapiens, UniProt O60885). As to the kind of experiment: TR-FRET bromodomain binding assay, BRD4 BDI.
`Cc1cc(F)cc(C)c1Oc1ccc(C(C)(C)O)cc1-c1cn(C)c(=O)cc1NC1CCN(S(C)(=O)=O)CC1` [Example 9, 5-[2-(4-fluoro-2,6-dimethylphenoxy)-5-(2-hydroxypropan-2-yl)phenyl]-4-{[1-(methanesulfonyl)piperidin-4-yl]amino}-1-methylpyridin-2(1H)-one] gave a Ki of 3.68 µM. The figure for `Cc1cc(F)cc(C)c1Oc1ccc(C(C)(C)O)cc1-c1cn(C)c(=O)cc1O[C@H]1CC[C@H](N2C(=O)CCCC2=O)CC1` [Example 80, 1-[trans-4-({5-[2-(4-fluoro-2,6-dimethylphenoxy)-5-(2-hydroxypropan-2-yl)phenyl]-1-methyl-2-oxo-1,2-dihydropyridin-4-yl}oxy)cyclohexyl]piperidine-2,6-dione] is 9.88 µM; for `Cc1cc(F)cc(C)c1Oc1ccc(C(C)(C)O)cc1-c1cn(C)c(=O)cc1O[C@H]1CC[C@H](C(=O)O)CC1` [Example 61, trans-4-({5-[2-(4-fluoro-2,6-dimethylphenoxy)-5-(2-hydroxypropan-2-yl)phenyl]-1-methyl-2-oxo-1,2-dihydropyridin-4-yl}oxy)cyclohexane-1-carboxylic acid] it is 12.2 µM. The value for `Cc1cc(F)cc(C)c1Oc1ccc(C(C)(C)O)cc1-c1cn(C)c(=O)cc1O[C@H]1CC[C@H](N2C(=O)N(C)C(C)(C)C2=O)CC1` [Example 142, 3-[trans-4-({5-[2-(4-fluoro-2,6-dimethylphenoxy)-5-(2-hydroxypropan-2-yl)phenyl]-1-methyl-2-oxo-1,2-dihydropyridin-4-yl}oxy)cyclohexyl]-1,5,5-trimethylimidazolidine-2,4-dione] was 0.94 µM; that for `CCNC(=O)[C@H]1CC[C@@H](Oc2cc(=O)n(C)cc2-c2cc(C(C)(C)O)ccc2Oc2c(C)cc(F)cc2C)CC1` [Example 76, cis-N-ethyl-4-({5-[2-(4-fluoro-2,6-dimethylphenoxy)-5-(2-hydroxypropan-2-yl)phenyl]-1-methyl-2-oxo-1,2-dihydropyridin-4-yl}oxy)cyclohexane-1-carboxamide] was 7.69 µM; that for `Cc1cc(F)cc(C)c1Oc1ccc(C(C)(C)O)cc1-c1cn(C)c(=O)cc1O[C@H]1CC[C@H](NC(=O)C2(C#N)CCC2)CC1` [Example 88, 1-cyano-N-[trans-4-({5-[2-(4-fluoro-2,6-dimethylphenoxy)-5-(2-hydroxypropan-2-yl)phenyl]-1-methyl-2-oxo-1,2-dihydropyridin-4-yl}oxy)cyclohexyl]cyclobutane-1-carboxamide] was 3.98 µM. The figure for `Cc1cc(F)cc(C)c1Oc1ccc(C(C)(C)O)cc1-c1cn(C)c(=O)cc1O[C@H]1CC[C@H](NC(=O)C23CC(N)(C2)C3)CC1` (relative stereo) [Example 93, 3-amino-N-[trans-4-({5-[2-(4-fluoro-2,6-dimethylphenoxy)-5-(2-hydroxypropan-2-yl)phenyl]-1-methyl-2-oxo-1,2-dihydropyridin-4-yl}oxy)cyclohexyl]bicyclo[1.1.1]pentane-1-carboxamide] is 1.19 µM; for `Cc1cc(F)cc(C)c1Oc1ccc(C(C)(C)O)cc1-c1cn(C)c(=O)cc1O[C@H]1CC[C@H](N2C(=O)[C@H]3CCCN3C2=O)CC1` [Example 138, (7aR)-2-[trans-4-({5-[2-(4-fluoro-2,6-dimethylphenoxy)-5-(2-hydroxypropan-2-yl)phenyl]-1-methyl-2-oxo-1,2-dihydropyridin-4-yl}oxy)cyclohexyl]tetrahydro-1H-pyrrolo[1,2-c]imidazole-1,3(2H)-dione] it is 12.8 µM.

For `CCOC(=O)CC(=O)N[C@H]1CC[C@H](Oc2cc(=O)n(C)cc2-c2cc(C(C)(C)O)ccc2Oc2c(C)cc(F)cc2C)CC1` [Example 55, ethyl 3-{[trans-4-({5-[2-(4-fluoro-2,6-dimethylphenoxy)-5-(2-hydroxypropan-2-yl)phenyl]-1-methyl-2-oxo-1,2-dihydropyridin-4-yl}oxy)cyclohexyl]amino}-3-oxopropanoate], the Ki came to 1.87 µM. The figure for `CC(=O)NC1CC2(C1)CC(Nc1cc(=O)n(C)cc1-c1cc(C(C)(C)O)ccc1Oc1c(C)cccc1C)C2` (centres unmarked) [Example 10, N-[6-({5-[2-(2,6-dimethylphenoxy)-5-(2-hydroxypropan-2-yl)phenyl]-1-methyl-2-oxo-1,2-dihydropyridin-4-yl}amino)spiro[3.3]heptan-2-yl]acetamide] is 2.33 µM; for `Cc1cc(F)cc(C)c1Oc1ccc(C(C)(C)O)cc1-c1cn(C)c(=O)cc1O[C@H]1CC[C@H](NC(=O)C2(CNC(=O)OC(C)(C)C)CC2)CC1` [Example 104, tert-butyl [(1-{[trans-4-({5-[2-(4-fluoro-2,6-dimethylphenoxy)-5-(2-hydroxypropan-2-yl)phenyl]-1-methyl-2-oxo-1,2-dihydropyridin-4-yl}oxy)cyclohexyl]carbamoyl}cyclopropyl)methyl]carbamate] it is above 13 µM; for `Cc1cc(F)cc(C)c1Oc1ccc(C(C)(C)O)cc1-c1cn(C)c(=O)cc1O[C@H]1CC[C@H](C(=O)N(C)C)CC1` [Example 108, trans-4-({5-[2-(4-fluoro-2,6-dimethylphenoxy)-5-(2-hydroxypropan-2-yl)phenyl]-1-methyl-2-oxo-1,2-dihydropyridin-4-yl}oxy)-N,N-dimethylcyclohexane-1-carboxamide] it is 5.44 µM.

In turn, `Cc1cc(F)cc(C)c1Oc1ccc(C(C)(C)O)cc1-c1cn(C)c(=O)cc1O[C@H]1CC[C@H](NC(=O)CCC(C)(C)O)CC1` [Example 119, N-[trans-4-({5-[2-(4-fluoro-2,6-dimethylphenoxy)-5-(2-hydroxypropan-2-yl)phenyl]-1-methyl-2-oxo-1,2-dihydropyridin-4-yl}oxy)cyclohexyl]-4-hydroxy-4-methylpentanamide] came in with a Ki of 2.81 µM. The figure for `Cc1cc(F)cc(C)c1Oc1ccc(C(C)(C)O)cc1-c1cn(C)c(=O)cc1O[C@H]1CC[C@H](N2C(=O)NC3(CC3)C2=O)CC1` [Example 136, 6-[trans-4-({5-[2-(4-fluoro-2,6-dimethylphenoxy)-5-(2-hydroxypropan-2-yl)phenyl]-1-methyl-2-oxo-1,2-dihydropyridin-4-yl}oxy)cyclohexyl]-4,6-diazaspiro[2.4]heptane-5,7-dione] is 2.47 µM; for `COCCN1CC(=O)N([C@H]2CC[C@H](Oc3cc(=O)n(C)cc3-c3cc(C(C)(C)O)ccc3Oc3c(C)cc(F)cc3C)CC2)C1=O` [Example 135, 3-[trans-4-({5-[2-(4-fluoro-2,6-dimethylphenoxy)-5-(2-hydroxypropan-2-yl)phenyl]-1-methyl-2-oxo-1,2-dihydropyridin-4-yl}oxy)cyclohexyl]-1-(2-methoxyethyl)imidazolidine-2,4-dione] it is 3.68 µM; for `Cc1cc(F)cc(C)c1Oc1ccc(C(C)(C)O)cc1-c1cn(C)c(=O)cc1O[C@H]1C[C@@H](C(C)(C)O)C1` [Example 94, 5-[2-(4-fluoro-2,6-dimethylphenoxy)-5-(2-hydroxypropan-2-yl)phenyl]-4-{[cis-3-(2-hydroxypropan-2-yl)cyclobutyl]oxy}-1-methylpyridin-2(1H)-one] it is 1.67 µM.

Regarding `CC(=O)N[C@H]1CC[C@H](Nc2cc(=O)n(C)cc2-c2cc(C(C)(C)O)ccc2Oc2c(C)cc(F)cc2C)CC1` [Example 19, N-[trans-4-({5-[2-(4-fluoro-2,6-dimethylphenoxy)-5-(2-hydroxypropan-2-yl)phenyl]-1-methyl-2-oxo-1,2-dihydropyridin-4-yl}amino)cyclohexyl]acetamide], the Ki worked out at 2.89 µM. The value for `CC(=O)NC1CCC(C)(Oc2cc(=O)n(C)cc2-c2cc(C(C)(C)O)ccc2Oc2c(C)cc(F)cc2C)CC1` (stereo not drawn) [Example 84, N-[trans-4-({5-[2-(4-fluoro-2,6-dimethylphenoxy)-5-(2-hydroxypropan-2-yl)phenyl]-1-methyl-2-oxo-1,2-dihydropyridin-4-yl}oxy)-4-methylcyclohexyl]acetamide] was above 13 µM. The value for `CC(=O)NC12CCC(C(=O)N[C@H]3CC[C@H](Oc4cc(=O)n(C)cc4-c4cc(C(C)(C)O)ccc4Oc4c(C)cc(F)cc4C)CC3)(C1)C2` (relative stereo) [Example 137, 4-acetamido-N-[trans-4-({5-[2-(4-fluoro-2,6-dimethylphenoxy)-5-(2-hydroxypropan-2-yl)phenyl]-1-methyl-2-oxo-1,2-dihydropyridin-4-yl}oxy)cyclohexyl]bicyclo[2.1.1]hexane-1-carboxamide] was 1.8 µM.

`CNC(=O)N(C)Cc1ccc(Oc2c(C)cccc2C)c(-c2cn(C)c(=O)cc2O[C@H]2CC[C@H](NC(=O)C3(C)CC3)CC2)c1` [Example 113, N-[trans-4-({5-[2-(2,6-dimethylphenoxy)-5-{[methyl(methylcarbamoyl)amino]methyl}phenyl]-1-methyl-2-oxo-1,2-dihydropyridin-4-yl}oxy)cyclohexyl]-1-methylcyclopropane-1-carboxamide] had a Ki of 6.06 µM. The figure for `Cc1cc(F)cc(C)c1Oc1ccc(C(C)(C)O)cc1-c1cn(C)c(=O)cc1O[C@H]1CC[C@H](N2CCCNC2=O)CC1` [Example 31, 1-[trans-4-({5-[2-(4-fluoro-2,6-dimethylphenoxy)-5-(2-hydroxypropan-2-yl)phenyl]-1-methyl-2-oxo-1,2-dihydropyridin-4-yl}oxy)cyclohexyl]tetrahydropyrimidin-2(1H)-one] is 2.41 µM; for `Cc1cc(F)cc(C)c1Oc1ccc(C(C)(C)O)cc1-c1cn(C)c(=O)cc1O[C@H]1CC[C@H](N2C(=O)N[C@H](C(C)C)C2=O)CC1` [Example 131, (5R)-3-[trans-4-({5-[2-(4-fluoro-2,6-dimethylphenoxy)-5-(2-hydroxypropan-2-yl)phenyl]-1-methyl-2-oxo-1,2-dihydropyridin-4-yl}oxy)cyclohexyl]-5-(propan-2-yl)imidazolidine-2,4-dione] it is 6.32 µM. The figure for `Cc1cc(F)cc(C)c1Oc1ccc(C(C)(C)O)cc1-c1cn(C)c(=O)cc1O[C@H]1CC[C@H](N2C(=O)C(C)(C)N(C)C2C)CC1` (relative stereo) [Example 134, 5-[2-(4-fluoro-2,6-dimethylphenoxy)-5-(2-hydroxypropan-2-yl)phenyl]-1-methyl-4-{[trans-4-(2,3,4,4-tetramethyl-5-oxoimidazolidin-1-yl)cyclohexyl]oxy}pyridin-2(1H)-one] is 1.67 µM.
